The structures appear in SMILES notation.

Data set [1] relates to GTPase KRas (Homo sapiens), P01116 [G12C]. Briefly: Binding affinity to human hexahistidine-tagged KRas G12C mutant (1 to 169 residues) expressed in Escherichia coli(BL21 (DE3)) assessed as rate constant for covalent modification by measuring Kobs/[I] at 10 uM by liquid chromatography-electrospray mass spectrometry analysis.
Data set [2] can be described thus: Binding affinity to GppNHp-bound N-terminal His6-tagged KRAS4B G12D mutant (1 to 169 residues) (unknown origin) by isothermal titration calorimetry. Further details: species or system Homo sapiens. For orientation: In ITC the heat of successive injections is recorded.
A short description of data set [3]: Binding affinity to GppNHp-bound N-terminal His6-tagged KRAS4B G12D mutant (1 to 169 residues) (unknown origin) by microscale thermophoresis. On the set-up: species or system Homo sapiens. For orientation: MST reads how a fluorescent partner responds to local heating, with and without ligand.
In data set [4] the test system is DLD-1. Briefly: Antiproliferative activity against human DLD-1 cells. Format: functional, cell-based.
Data set [5] in a line: Binding affinity to GppNHp-bound N-terminal His6-tagged KRAS4B G12D mutant (1 to 169 residues) (unknown origin) at 10 uM by 19F NMR Spectroscopy. Further details: species or system Homo sapiens.
In data set [6] the target is T1, GTPase KRas (Homo sapiens, UniProt P01116). As to the kind of experiment: Inhibition of KRas activation in HEK 293T-REx Flp-In cells harboring Venus-RBD-CRD/mCherry-CAAX assessed as reduction in Venus-RBD-CRD recruitment to plasma membrane by inverted confocal microscopy. On the set-up: species or system Flp-In-T-REx-293.
In data set [7] the test system is DLD-1. Briefly: Antiproliferative activity against human DLD-1 cells harboring KRAS G13D mutant incubated for 72 hrs by CellTitreGlo assay. It counts as functional, cell-based. The conditions noted are these: DLD-1, 72 h.
For another data set, the system named is A549. As to the kind of experiment: Antiproliferative activity against human A549 cells incubated for 3 days by CellTiter-Glo assay. To be noted: A549, 72 h. It counts as functional, cell-based. For orientation: ATP-based viability assays read luminescence as a measure of living cells.
Data set [8] has as its target T1, GTPase KRas. As to the kind of experiment: Inhibition of GDP-bound KRas activation (unknown origin) expressed in Escherichia coli Rosetta2 (DE3) cells assessed as reduction in SOS-catalyzed nucleotide exchange at 1 mM in presence of BODIPY-GTP by fluorescence method relative to control.
The subject of the next data set is NCI-H358. As to the kind of experiment: Antiproliferative activity against human NCI-H358 cells incubated for 14 days by alamar blue dye based assay. It counts as functional, cell-based. The conditions noted are these: NCI-H358, 336 h.
The target in data set [9] is GTPase KRas (Homo sapiens, UniProt P01116, G12D). Briefly: Binding affinity to 15N-labelled GDP bound KRas G12D mutant ( 1 to 169 residues) (unknown origin) expressed in Escherichia coli Rosetta 2 (DE3) cells by 1H/15N- HSQC spectroscopy.
Data set [10] is described as follows: Oral bioavailability in BALB/c mouse at 10 mg/kg by LC-MS/MS analysis. Format: ADME, organism-based. To be noted: in vivo.
The subject of data set [11] is GTPase KRas (Homo sapiens), P01116 [G12C]. Briefly: Covalent binding affinity to GDP-loaded hexahistidine-tagged KRas G12C mutant (1 to 169 residues) (unknown origin) expressed in Escherichia coli assessed as rate constant by liquid chromatography-electrospray mass spectrometry analysis.
Data set [12] concerns DLD-1. As to the kind of experiment: Antiproliferative activity against human DLD-1 cells incubated for 72 hrs by CellTitreGlo assay. Format: functional, cell-based. To be noted: DLD-1, 72 h.

With `C=CC(=O)N1CCN(c2ncnc3cc(-c4ccccc4O)c(Cl)cc23)CC1`, in data set [1], the K was found to be 12 M⁻¹ s⁻¹. For orientation: Kd means the constant that tells how readily two partners part at equilibrium. A low value points to tighter binding. Usually IC50 stands for the concentration at which inhibition is half-maximal. A high value points to weaker potency in that assay. Consider `NC1(C(=O)NCCCn2cc(-c3ccc(OC(F)(F)F)cc3)c3cc(CN4CCN(Cc5c(Cl)cccc5Cl)CC4)ccc32)CCNCC1`, for which the dissociation constant (Kd) in [2], in data set [3] and in [5] was 9 µM in each case. Further, the IC50 with DLD-1 [4] was 8.8 µM. One may read the EC50 as the concentration at which the effect is half-maximal. In the case of `Cc1[nH]c2cc(Cl)cc(Cl)c2c1CCN`, on GTPase KRas [6], the EC50 came out at 15.8 µM. Turning to `C=CC(=O)N1CCN(c2ncnc3c(F)c(-c4c(O)cccc4F)c(Cl)cc23)CC1` (atropisomer S), the K in [1] turned out to be 1100 M⁻¹ s⁻¹. In the data set with DLD-1 [7], `COc1nc(-c2cccc3c2OCCO3)ccc1Nc1ccc(CN(C)C)cc1` displayed an IC50 of 8 µM. In the data set with A549, `CCCC(CCC)COC(=O)[C@@H](C)NP(=O)(OCCNC(=O)CCl)OP(=O)(O)OC[C@H]1O[C@@H](n2cnc3c(=O)[nH]c(N)nc32)[C@H](O)[C@@H]1O` (stereo partly specified) returned an EC50 of 43.8 µM.

The term inhibition denotes the relative decrease from the control value, in per cent. On to `CC[C@H](C)[C@H](N)C(=O)Nc1ccc2nc(Cc3c[nH]c4ccccc34)[nH]c2c1`, for which the inhibition at GTPase KRas [8] was 78%. On to `Cn1cnc(Cn2ccc3ccc(CNCc4[nH]c5ccccc5c4[C@H]4NC(=O)c5ccc(O)cc54)cc32)c1`, for which it took 6.7 µM to reach half-maximal inhibition in the data set with NCI-H358 (IC50).

As for `c1ccc2c(Cc3nc4ccncc4[nH]3)c[nH]c2c1`, the Kd at GTPase KRas [9] was 1300 µM. That is a millimolar value. For orientation: bioavailability means the share of a dose that reaches the circulation, judged against a reference dose that is usually intravenous. For the molecule `C=CC(=O)N1CC(N2CCN(C(=O)CNc3cc(C4(C)CC4)c(Cl)cc3O)CC2)C1`, the K in data set [1] was 140 M⁻¹ s⁻¹; in data set [11], 76 M⁻¹ s⁻¹. For the same molecule, the bioavailability in data set [10] was greater than 60%. On to `COc1cccc(-c2ccc(Nc3ccc(CN(C)C)cc3)c(OC)c2F)c1`, for which the IC50 with DLD-1 [12] amounted to 4.5 µM. This lies in the single-digit micromolar range.

The values above are taken from ChEMBL document CHEMBL4673313, “Small-Molecule Inhibitors Directly Targeting KRAS as Anticancer Therapeutics” (J Med Chem, 2020).
